# PMC11768629, “Potential Interaction of Pinocembrin with Drug Transporters and Hepatic Drug-Metabolizing Enzymes” (Pharmaceuticals, 2025)
# Read-outs that look alike come from different tables or passages of the source.
# Columns and labels:
# CYP2C8 = system: CYP2C8; set-up: method as in PMID 34069400, doi:10.5562/cca3652, PMID 35721953; conditions: cited from earlier work
# OATP2B1 = system: OATP2B1; set-up: method as in PMID 28745105; conditions: transfected renal cells; read-out: IC50 on OATP2B1-mediated rosuvastatin uptake; cited from earlier work
# hOAT3 [1] = target: T1, hOAT3 (Homo sapiens, UniProt Q8TCC7); assay: hOAT3-mediated 6-CF uptake in hOAT3-MDCK cells (inhibitory potency and kinetics); type: cell-based
# T1 construct: host or cells: MDCK
# T1 sequence (Q8TCC7 1-542): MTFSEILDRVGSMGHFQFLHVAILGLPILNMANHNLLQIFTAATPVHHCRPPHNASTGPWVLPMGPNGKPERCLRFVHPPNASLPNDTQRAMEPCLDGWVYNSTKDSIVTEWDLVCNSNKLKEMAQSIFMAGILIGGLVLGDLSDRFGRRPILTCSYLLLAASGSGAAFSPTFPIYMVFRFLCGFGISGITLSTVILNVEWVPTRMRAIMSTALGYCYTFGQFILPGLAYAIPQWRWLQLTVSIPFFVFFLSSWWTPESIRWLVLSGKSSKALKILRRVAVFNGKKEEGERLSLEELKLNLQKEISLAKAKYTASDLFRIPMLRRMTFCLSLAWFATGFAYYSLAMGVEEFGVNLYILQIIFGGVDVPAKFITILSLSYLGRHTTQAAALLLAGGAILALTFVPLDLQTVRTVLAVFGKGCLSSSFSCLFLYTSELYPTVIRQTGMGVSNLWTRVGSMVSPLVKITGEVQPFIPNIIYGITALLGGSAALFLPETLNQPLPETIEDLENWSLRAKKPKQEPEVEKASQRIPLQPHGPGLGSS
# Procedure: To determine the inhibitory potency of pinocembrin on the hOAT1 and hOAT3 function, the IC50 of pinocembrin on the hOAT1- and hOAT3-mediated uptake of 6-carboxyfluorescein (6-CF), a fluorescent substrate of hOAT1 and hOAT3, was determined. […] Next, the inhibitory mechanism of pinocembrin was determined using a kinetic study.
# The hOAT1-MDCK and hOAT3-MDCK cell monolayers were incubated at 37 °C with an uptake buffer containing 6-CF (10 µM), a fluorescent substrate of hOAT1 and hOAT3 [12], and pinocembrin (0–50 µM) for 10 min. Uptake was terminated by removing the uptake solution and washing four times with a cold buffer. The cell monolayers were lysed with 0.4 N NaOH for 30 min. The samples were transferred to 96-black well plates to measure the fluorescence intensity using a fluorescent plate reader (EnVision XCite 2105 Multimode Plate Reader, Packard BioScience, Wellesley, MA, USA) at excitation and emission wavelengths of 490 and 510, respectively. The IC50 of pinocembrin on hOAT1- and hOAT3-mediated 6-CF uptake was calculated in GraphPad Prism using sigmoidal concentration–response analysis using the equation Y = 100/(IC50/X)^HillSlope (X is the concentration, while Y is the normalized response). In addition, the estimated inhibitory constant (Ki) was calculated using the Cheng–Prusoff equation.
# The hOAT1-MDCK and hOAT3-MDCK cell monolayers were incubated with 6-CF at increasing concentrations (0 to 100 µM) and in the absence or presence of 5 µM pinocembrin for 10 min. The kinetic parameters of 6-CF transport by hOAT1 and hOAT3 in the presence of pinocembrin were determined using nonlinear regression analysis to fit the Michaelis–Menten kinetic equation: V=Vmax[S]/Km+[S] where V is the rate of 6-CF transport, Vmax is the maximum rate of 6-CF transport, Km is the 6-CF concentration that results in half the maximum transport (Michaelis–Menten constant), and [S] is the concentration of 6-CF in the transport reaction.
# CYP3A4 = conditions: cited from earlier work
# hOAT3 [2] = target: T1, hOAT3; assay: Pinocembrin treatment followed by 3H-estrone sulfate accumulation in hOAT3-MDCK cells; type: cell-based; conditions: 1, 10 and 50 μM for 24 h, concentration-dependent, compared with vehicle
# Procedure: The hOAT1-MDCK cells and hOAT3-MDCK cells were treated with 1, 10, and 50 μM pinocembrin for 24 h, followed by a measurement of ^3H-PAH and ^3H-estrone sulfate cellular accumulation. […] The inhibitory effect of pinocembrin occurred in a concentration-dependent manner.
# A cell monolayer comprising hOAT1-MDCK, hOAT3-MDCK, hOCT1-CHO-K1, hOCT2-CHO-K1, hMATE1-CHO-K1, hMATE2-CHO-K1, and mock cells were utilized for the uptake experiments. The cells were washed three times with a buffer containing (in mM) 140 NaCl, 5 KCl, 0.4 MgSO4, 0.5 MgCl2, 1 CaCl2, 0.3 Na2HPO4, 0.4 KH2PO4, 6 D-glucose, and 4 NaHCO3 at pH 7.4 and incubated at 37 °C for 15 min. After incubation, the hOAT1-MDCK and hOAT3-MDCK cells were incubated for 10 min with ^3H-PAH and ^3H-estrone sulfate, a substrate of hOAT1 and hOAT3, respectively. The hOCT1-CHO-K1 and hOCT2-CHO-K1 cells were incubated with ^3H-MPP^+, a substrate of OCT1 and OCT2, for five minutes. The functions of MATE1 and MATE2 were determined by incubating the hMATE1-CHO-K1 and hMATE2-CHO-K1 cells with a buffer containing ^3H-MPP^+, a substrate of MATE1 and MATE2, at pH 8.5 for five minutes. The cells were washed three times with an ice-cold buffer to stop the transport function. […] The samples were collected and transferred to vials containing a liquid scintillation cocktail to measure radioactivity by a β-counter (Packard BioScience, Wellesley, MA, USA). […]
# CYP2B6 = target: T2, CYP2B6 (Homo sapiens, UniProt P20813); assay: Cell-free CYP450 inhibition assay, CYP2B6; type: biochemical; conditions: cell-free fluorescent probe assay, BACULOSOMES
# T2 construct: purchased Life Technologies
# T2 sequence (P20813 whole entry): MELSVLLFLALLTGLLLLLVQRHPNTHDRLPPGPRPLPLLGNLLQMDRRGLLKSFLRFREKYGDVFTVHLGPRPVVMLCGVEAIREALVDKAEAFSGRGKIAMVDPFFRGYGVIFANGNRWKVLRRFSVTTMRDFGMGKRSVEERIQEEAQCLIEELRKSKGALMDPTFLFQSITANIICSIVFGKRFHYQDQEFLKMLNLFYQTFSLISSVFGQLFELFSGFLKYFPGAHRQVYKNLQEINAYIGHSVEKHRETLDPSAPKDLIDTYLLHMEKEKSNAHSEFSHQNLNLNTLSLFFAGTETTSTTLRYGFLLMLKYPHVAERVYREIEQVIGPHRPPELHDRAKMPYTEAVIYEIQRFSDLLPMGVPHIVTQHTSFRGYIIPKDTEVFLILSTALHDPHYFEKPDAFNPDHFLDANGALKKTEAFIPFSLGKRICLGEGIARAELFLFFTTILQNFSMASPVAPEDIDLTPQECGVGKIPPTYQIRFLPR
# Procedure: To determine whether pinocembrin influences the catalytic activity of CYP450 enzymes, fluorescent probe reaction assays were performed using varying concentrations of pinocembrin. […] In addition, molecular docking was conducted to better understand the binding mode and interactions between pinocembrin and human CYP2C19.
# The CYP450 inhibitory activity of pinocembrin was determined using a P450 screening kit (Life Technologies; Carlsbad, CA, USA). Varied concentrations of pinocembrin were prepared in methanol. […] The fluorescence intensities were monitored every minute for 60 min at room temperature. The percentage of inhibition was calculated according to the following equation: % Inhibition=(1−X−B/A−B)×100% where X is the fluorescence intensity observed in the presence of pinocembrin.
structure (smiles),measurement,setting,value
O=C1C[C@@H](c2ccccc2)Oc2cc(O)cc(O)c21 [pinocembrin],effect on the activity of CYP2C8,CYP2C8,does not affect
same,IC50,OATP2B1,8.9 µM
same,"Vmax of hOAT3-mediated 6-CF uptake, With Pinocembrin","hOAT3 [1]; 5 μM pinocembrin, 6-CF up to 100 μM, hOAT3-MDCK cells",11.32 ± 2.33 nmol/min/cm^2
same,IC50,"hOAT3 [1]; hOAT3-MDCK cells, 6-CF 10 µM, mean ± S.D., three experiments",2.38 ± 0.98 µM
same,Ki,"hOAT3 [1]; hOAT3-MDCK cells, estimated with the Cheng–Prusoff equation",1.3 ± 0.24 µM
same,inhibitory mechanism on hOAT3 transport function,"hOAT3 [1]; kinetic study, 5 μM pinocembrin: Km increased, Vmax unchanged",competitively
same,effect on the activity of CYP3A4,CYP3A4,inhibits the activities
same,effect on the activity of CYP3A4,CYP3A4; concentrations of 1–5 µM,shows an inhibitory effect
same,3H-estrone sulfate accumulation after pinocembrin treatment,hOAT3 [2],significantly decreased
same,IC50,CYP2B6,44 µM
